From PubChem BioAssay AID248 (DTP/NCI, 2004)
Where “and” joins values, the source holds several entries; their conditions need not be identical. Equal values may be shown once. Toxic doses and inconclusive results are not listed. No stated cut-off is given here; in the data, active means T/C of 150% or more; inactive means T/C below 125%.

Tested on: L1210 leukemia ip in BDF1 mice, survival T/C
Experiment: NCI In Vivo Anticancer Drug Screen. Data for tumor model L1210 Leukemia (intraperitoneal) in B6D2F1 (BDF1) mice
Conditions: endpoint: mean survival time, higher = longer survival
Method in brief: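 Ratio derived from survival: compound-dosed mice over vehicle-dosed mice, all bearing a transplantable tumor.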

[1] = dose: 100.0 mg/kg/injection, schedule: Q01DX009 (ip), vehicle: Klucel (hydroxypropylcellulose) (HPC)
[2] = dose: 200.0 mg/kg/injection, schedule: Q01DX009 (ip), vehicle: Klucel (hydroxypropylcellulose) (HPC)
[3] = dose: 400.0 mg/kg/injection, schedule: Q01DX009 (ip), vehicle: Klucel (hydroxypropylcellulose) (HPC)
[4] = dose: 100.0 mg/kg/injection, schedule: Q01DX001 (ip), vehicle: saline
[5] = dose: 100.0 mg/kg/injection, schedule: Q04DX003 (ip), vehicle: saline
[6] = dose: 200.0 mg/kg/injection, schedule: Q01DX001 (ip), vehicle: saline
[7] = dose: 400.0 mg/kg/injection, schedule: Q01DX001 (ip), vehicle: saline
[8] = dose: 50.0 mg/kg/injection, schedule: Q01DX001 (ip), vehicle: carboxymethylcellulose (CMC)
[9] = dose: 100.0 mg/kg/injection, schedule: Q01DX001 (ip), vehicle: carboxymethylcellulose (CMC)
[10] = dose: 100.0 mg/kg/injection, schedule: Q04DX003 (ip), vehicle: saline with Tween-80
[11] = dose: 200.0 mg/kg/injection, schedule: Q01DX001 (ip), vehicle: carboxymethylcellulose (CMC)
[12] = dose: 200.0 mg/kg/injection, schedule: Q04DX003 (ip), vehicle: saline with Tween-80
[13] = dose: 400.0 mg/kg/injection, schedule: Q01DX001 (ip), vehicle: carboxymethylcellulose (CMC)
[14] = dose: 400.0 mg/kg/injection, schedule: Q04DX003 (ip), vehicle: saline with Tween-80

Measured: T/C

NC(=O)C1CCCC12NC(=O)NC2=O (stereo not given)
inactive: [1] 104 % of control | dose: 100.0 mg/kg/injection, schedule: Q04DX003 (ip), vehicle: Klucel (hydroxypropylcellulose) (HPC) 100 % of control | [2] 94 % of control | dose: 200.0 mg/kg/injection, schedule: Q04DX003 (ip), vehicle: Klucel (hydroxypropylcellulose) (HPC) 103 % of control | [3] 93 % of control | dose: 400.0 mg/kg/injection, schedule: Q04DX003 (ip), vehicle: Klucel (hydroxypropylcellulose) (HPC) 97 % of control

CCOC(=O)/C(C#N)=C\c1ccc(N(C)C)cc1
inactive: dose: 100.0 mg/kg/injection, schedule: Q01DX Z (ip), vehicle: methylcellulose (MC) 106 % of control | dose: 200.0 mg/kg/injection, schedule: Q01DX Z (ip), vehicle: methylcellulose (MC) 108 % of control

CCOc1ccc(/C=N/NC(C)=O)cc1OC
inactive: dose: 50.0 mg/kg/injection, schedule: Q01DX009 (ip), vehicle: saline with Tween-80 95 % of control | dose: 100.0 mg/kg/injection, schedule: Q01DX009 (ip), vehicle: saline with Tween-80 101 % of control

CC(C)CCCC(C)C1CCC2C3CC(=O)NC4CC(Cl)CCC4(C)C3CCC12C (stereo not given)
inactive: [4] 89 % of control | [5] 86 % of control | [6] 93 % of control | [7] 91 % of control

COC(=O)C1C2CC(O)C(C2)C1C(=O)OC (stereo not given)
inactive: dose: 12.5 mg/kg/injection, schedule: Q04DX003 (ip), vehicle: saline with Tween-80 95 % of control | dose: 25.0 mg/kg/injection, schedule: Q04DX003 (ip), vehicle: saline with Tween-80 103 % of control | dose: 50.0 mg/kg/injection, schedule: Q04DX003 (ip), vehicle: saline with Tween-80 94 % of control

O=C(O)Cc1n[nH]c(=O)c2ccccc12
inactive: dose: 100.0 mg/kg/injection, schedule: Q04DX002 (ip), vehicle: Klucel (hydroxypropylcellulose) (HPC) 93 % of control | dose: 200.0 mg/kg/injection, schedule: Q04DX002 (ip), vehicle: Klucel (hydroxypropylcellulose) (HPC) 99 % of control | dose: 400.0 mg/kg/injection, schedule: Q04DX002 (ip), vehicle: Klucel (hydroxypropylcellulose) (HPC) 102 % of control

COc1cc2c(cc1OC)C(CC1=CCN3CCC4=C(C=CCC4)C3C1)NCC2 (stereo not given)
inactive: dose: 4.0 mg/kg/injection, schedule: Q04DX003 (ip), vehicle: water 106 % of control | dose: 8.0 mg/kg/injection, schedule: Q04DX003 (ip), vehicle: water 101 % of control | dose: 16.0 mg/kg/injection, schedule: Q04DX003 (ip), vehicle: water 102 % of control | dose: 32.0 mg/kg/injection, schedule: Q04DX003 (ip), vehicle: water 101 % of control | dose: 64.0 mg/kg/injection, schedule: Q04DX003 (ip), vehicle: water 112 % of control

O=C1C(Cl)=C(Nc2ccc(Br)cc2)C(=O)C(Cl)=C1Nc1ccc(Br)cc1
inactive: [8] 92 % of control | [9] 92 % of control | [10] 98 % of control | [11] 86 % of control | [12] 95 % of control | [13] 90 % of control | [14] 103 % of control

CN(C)CCc1ccc2cc3ccc(CCN(C)C)cc3nc2c1
inactive: dose: 6.25 mg/kg/injection, schedule: Q04DX002 (ip), vehicle: saline with Tween-80 102 % of control | dose: 12.5 mg/kg/injection, schedule: Q04DX002 (ip), vehicle: saline with Tween-80 105 % of control | dose: 25.0 mg/kg/injection, schedule: Q04DX002 (ip), vehicle: saline with Tween-80 105 % of control

Fc1c(F)c(F)c(Oc2nc(Oc3c(F)c(F)c(F)c(F)c3F)nc(-c3ccccc3)n2)c(F)c1F
inactive: dose: 25.6 mg/kg/injection, schedule: Q04DX002 (ip), vehicle: saline with Tween-80 91 % of control | dose: 64.0 mg/kg/injection, schedule: Q04DX002 (ip), vehicle: saline with Tween-80 102 % of control | [10] 92 % of control | dose: 160.0 mg/kg/injection, schedule: Q04DX002 (ip), vehicle: saline with Tween-80 94 % of control | [12] 92 % of control | dose: 400.0 mg/kg/injection, schedule: Q04DX002 (ip), vehicle: saline with Tween-80 105 % of control | [14] 87 % of control

O=C(N1CCCCC1)N1CCCCC1
inactive: dose: 100.0 mg/kg/injection, schedule: Q04DX002 (ip), vehicle: other 105 % of control | dose: 200.0 mg/kg/injection, schedule: Q04DX002 (ip), vehicle: other 91 % of control | dose: 400.0 mg/kg/injection, schedule: Q04DX002 (ip), vehicle: other 88 % of control

COc1ccc(CCN=C(N)CCl)cc1
inactive: dose: 100.0 mg/kg/injection, schedule: Q04DX002 (ip), vehicle: saline 95 % of control | dose: 200.0 mg/kg/injection, schedule: Q04DX002 (ip), vehicle: saline 106 % of control

C1CCN(CCC2CCCCN2)CC1 (stereo not given)
inactive: dose: 25.0 mg/kg/injection, schedule: Q04DX003 (ip), vehicle: saline 105 % of control | dose: 50.0 mg/kg/injection, schedule: Q04DX003 (ip), vehicle: saline 94 % of control | [5] 101 % of control and 92 % of control

C[n+]1ccccc1/C=N/Nc1ccccc1
inactive: dose: 75.0 mg/kg/injection, schedule: Q01DX001 (ip), vehicle: other 96 % of control

O=[As](O)(O)CCCc1ccccc1
inactive: dose: 6.25 mg/kg/injection, schedule: Q01DX009 (ip), vehicle: Klucel (hydroxypropylcellulose) (HPC) 108 % of control | dose: 12.5 mg/kg/injection, schedule: Q01DX009 (ip), vehicle: Klucel (hydroxypropylcellulose) (HPC) 108 % of control

CC1(C)CCC(C)(C)C2CC3CC4C(CC3CC21)C(C)(C)CCC4(C)C (stereo not given)
inactive: [4] 89 % of control | [6] 104 % of control | [7] 97 % of control

Cc1c(/C=C(\C#N)c2ccc([N+](=O)[O-])cc2)c(=O)n(-c2ccccc2)n1C
inactive: dose: 100.0 mg/kg/injection, schedule: Q01DX009 (ip), vehicle: gum acacia 93 % of control | dose: 100.0 mg/kg/injection, schedule: Q04DX003 (ip), vehicle: gum acacia 92 % of control | dose: 200.0 mg/kg/injection, schedule: Q01DX009 (ip), vehicle: gum acacia 90 % of control | dose: 200.0 mg/kg/injection, schedule: Q04DX003 (ip), vehicle: gum acacia 105 % of control | dose: 400.0 mg/kg/injection, schedule: Q01DX009 (ip), vehicle: gum acacia 89 % of control | dose: 400.0 mg/kg/injection, schedule: Q04DX003 (ip), vehicle: gum acacia 95 % of control

COc1ccc(CN2CCCN(Cc3ccc(OC)cc3OC)C2c2ccc(N(CCCl)CCCl)cc2)c(OC)c1
inactive: [8] 106 % of control | [9] 101 % of control | [11] 115 % of control | [13] 106 % of control

C=CC(=O)N1CN(C(=O)C=C)CN(C(=O)C=C)C1
inactive: dose: 1.25 mg/kg/injection, schedule: Q01DX009 (ip), vehicle: saline 99 % of control | dose: 2.5 mg/kg/injection, schedule: Q01DX009 (ip), vehicle: saline 99 % of control | dose: 5.0 mg/kg/injection, schedule: Q01DX009 (ip), vehicle: saline 104 % of control

O=c1[nH]c(=O)c2nc3ccccc3nc2[nH]1
inactive: [1] 100 % of control | [2] 94 % of control | [3] 93 % of control

CCCOc1cccc(C(=N)N)c1
inactive: dose: 75.0 mg/kg/injection, schedule: Q01DX001 (ip), vehicle: Klucel (hydroxypropylcellulose) (HPC) 97 % of control | dose: 150.0 mg/kg/injection, schedule: Q01DX001 (ip), vehicle: Klucel (hydroxypropylcellulose) (HPC) 96 % of control | dose: 300.0 mg/kg/injection, schedule: Q01DX001 (ip), vehicle: Klucel (hydroxypropylcellulose) (HPC) 96 % of control
